Results: publication PMC8642400, “Unexpected scaffold rearrangement product of pirenzepine found in commercial samples” (Scientific Reports, 2021)
Entries after “also recorded” stand apart in the source; their conditions may differ. Counter-ions that a name gives are not always drawn.

How the values were obtained:
CHO-K1 cells = assay: MTT cytotoxicity assay toward CHO cell line; conditions: 72 h exposure, whole concentration range, up to 1 mM
[1] = Rearrangement in simulated gastric fluid or equimolar aqueous HCl (HPLC); assay type: physicochemical; conditions: 0.08 M aq. HCl, 1 g/L NaCl and 1.6 g/L pepsin, 6 h at 37 °C
[2] = Kinetics of acid-catalysed rearrangement of 2 to 4 in aqueous HCl (HPLC); conditions: for half-life at 50 µg/mL: 6 M aqueous HCl, Half life of rearrangement, initial concentration 50 µg/mL, n = 3
[3] = Thermal stability of pure crystalline solid; assay type: physicochemical; conditions: 100 °C for 12 h
human mAChR M5 = molecular target: T1, human mAChR M5 (Homo sapiens, UniProt P08912); assay: Competitive [3H]NMS radioligand binding assay on CHO cell membranes, mAChR M5; conditions: CHO cell membranes with human receptor, 1.5 h at 20 °C, this work
T1 construct: host or cells: CHO-K1 (stably transfected), membrane preparation
T1 sequence (P08912 1-532): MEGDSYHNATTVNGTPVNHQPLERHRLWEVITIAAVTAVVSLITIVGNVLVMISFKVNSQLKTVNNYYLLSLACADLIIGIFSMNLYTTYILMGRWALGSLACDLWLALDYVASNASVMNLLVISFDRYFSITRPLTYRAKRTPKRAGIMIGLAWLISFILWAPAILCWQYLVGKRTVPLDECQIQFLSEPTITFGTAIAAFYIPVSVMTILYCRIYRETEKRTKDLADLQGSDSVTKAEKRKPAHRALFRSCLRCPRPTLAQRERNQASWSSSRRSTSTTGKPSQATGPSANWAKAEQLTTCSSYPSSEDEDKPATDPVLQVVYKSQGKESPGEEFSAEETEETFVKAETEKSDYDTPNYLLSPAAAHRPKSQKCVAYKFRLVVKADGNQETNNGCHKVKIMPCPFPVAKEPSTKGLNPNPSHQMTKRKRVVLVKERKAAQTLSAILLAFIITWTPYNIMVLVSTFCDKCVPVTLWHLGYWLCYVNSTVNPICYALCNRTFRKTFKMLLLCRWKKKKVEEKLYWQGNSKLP
Experimental: (§1) Filter bound decay rate is normalized to 1 for binding in absence of competitor and to 0 for nonspecific binding.
(§2) Membrane preparations of mAChR M1, M2, M3, M4 or M5 receptors were produced from the respective cell line as follows. The medium of a confluent T175 cell culture flask was poured off and the cell layer was washed with ice-cold PBS. Cells were scraped off and suspended in 2 mL 10 mM Tris/HCl, 1 mM EDTA buffer (pH 7.4) and 200 µL protease inhibitor cocktail. A cell homogenate obtained from passing the cell suspension through a G29 needle was centrifuged (10 min, 1,000 g, 4 °C).
(§3) A competitive radioligand binding assay using [^3H]NMS and variable concentrations of test compounds was performed in assay buffer (50 mM Tris/HCl, 10 mM MgCl2, 1 mM EDTA). Polypropylene tubes were filled with 5 µL aqueous solution of the test compounds, 50 µL radioligand solution in assay buffer and 445 µL membrane suspension in assay buffer (diluted approx. 1:100), shaken and incubated for 1.5 h at 20 °C. Nonspecific binding of the radioligand was determined by using 5 µL of a 1 µM scopolamine hydrobromide solution. The concentration of the radioligand solution was chosen as 2 nM, 3 nM, 8 nM, 2 nM and 10 nM for M1-M5, respectively. […] Specific binding was calculated as total binding minus nonspecific binding. To delineate the IC50 value, specific binding was plotted against the logarithm of the test compound concentration and fitted by a variable slope logistic regression.
(§4) Table S3: HPLC parameters of the methods for the analysis of pirenzepine, telenzepine and their rearrangement products. LOD = limit of
(§5) detection, LOL = limit of linearityi
(§6) Stably transfected CHO-K1 cells containing human muscarinic receptors M1-M5 were purchased from Missouri
(§7) University of Science and Technology cDNA Resource Center (Cell Catalog#: CEM1000000, CEM2000000,
(§8) Limited) supplemented with 10% FBS (Gibco, Life Tec hnologies Limited) and 250 µg/mL Geneticin® (G418, Thermo
(§9) Fisher) at 37 °C and 5% CO2 in a cell incubator. Cells were passaged using Gibco Trypsin -EDTA (0.05%). A solution of […]

human mAChR M2 = molecular target: T2, human mAChR M2 (Homo sapiens, UniProt P08172); assay: Competitive [3H]NMS radioligand binding assay on CHO cell membranes, mAChR M2; conditions: CHO cell membranes with human receptor, 1.5 h at 20 °C, this work
T2 construct: host or cells: CHO-K1 (stably transfected), membrane preparation
T2 sequence (P08172 1-466): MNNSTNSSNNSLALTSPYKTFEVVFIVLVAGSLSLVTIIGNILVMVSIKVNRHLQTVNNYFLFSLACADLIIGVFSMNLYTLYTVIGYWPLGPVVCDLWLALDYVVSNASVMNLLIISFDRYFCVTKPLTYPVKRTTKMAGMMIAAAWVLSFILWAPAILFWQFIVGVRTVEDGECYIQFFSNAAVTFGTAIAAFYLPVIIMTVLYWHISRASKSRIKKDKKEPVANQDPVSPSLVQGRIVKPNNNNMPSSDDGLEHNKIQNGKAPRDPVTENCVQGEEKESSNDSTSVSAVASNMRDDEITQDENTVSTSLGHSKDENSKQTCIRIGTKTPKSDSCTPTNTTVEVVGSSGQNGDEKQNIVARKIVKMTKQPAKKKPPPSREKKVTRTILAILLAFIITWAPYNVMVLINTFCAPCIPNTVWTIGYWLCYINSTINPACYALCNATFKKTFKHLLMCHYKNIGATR
Experimental: as §1, §2, §3, §4, §5, §6, §7, §8, §9

human mAChR M1 = molecular target: T3, human mAChR M1 (Homo sapiens, UniProt P11229); assay: Competitive [3H]NMS radioligand binding assay on CHO cell membranes, mAChR M1; conditions: for Ki: [3H]NMS 0.2 nM, CHO cell membranes with human receptor, 1.5 h at 20 °C, this work
T3 construct: host or cells: CHO-K1 (stably transfected), membrane preparation
T3 sequence (P11229 1-460): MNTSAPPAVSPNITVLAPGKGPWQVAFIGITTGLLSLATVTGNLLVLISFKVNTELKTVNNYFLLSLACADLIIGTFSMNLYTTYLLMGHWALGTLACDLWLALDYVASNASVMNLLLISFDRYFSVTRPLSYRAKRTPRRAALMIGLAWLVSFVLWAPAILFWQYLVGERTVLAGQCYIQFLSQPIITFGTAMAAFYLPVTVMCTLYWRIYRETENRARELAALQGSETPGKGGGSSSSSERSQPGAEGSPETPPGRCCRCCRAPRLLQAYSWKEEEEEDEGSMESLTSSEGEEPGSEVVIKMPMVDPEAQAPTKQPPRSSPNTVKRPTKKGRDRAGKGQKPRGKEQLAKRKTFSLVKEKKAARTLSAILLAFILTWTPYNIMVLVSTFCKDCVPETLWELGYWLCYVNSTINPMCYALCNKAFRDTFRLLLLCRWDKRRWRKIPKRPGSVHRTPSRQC
Experimental: as §1, §2
as §3, with “solution.” for “solution. The concentration of the radioligand solution was chosen as 2 nM, 3 nM, 8 nM, 2 nM and 10 nM for M1-M5, respectively.”
as §4, §5, §6, §7, §8
Fisher) at 37 °C and 5% CO2 in a cell incubator. Cells were passaged using Gibco Trypsin -EDTA (0.05%). A solution of
P2714-1BTL, Sigma-Aldrich in 10 mL water was used as protease inhibitor cocktail.

human mAChR M4 = molecular target: T4, human mAChR M4 (Homo sapiens, UniProt P08173); assay: Competitive [3H]NMS radioligand binding assay on CHO cell membranes, mAChR M4; conditions: CHO cell membranes with human receptor, 1.5 h at 20 °C, this work
T4 construct: host or cells: CHO-K1 (stably transfected), membrane preparation
T4 sequence (P08173 1-479): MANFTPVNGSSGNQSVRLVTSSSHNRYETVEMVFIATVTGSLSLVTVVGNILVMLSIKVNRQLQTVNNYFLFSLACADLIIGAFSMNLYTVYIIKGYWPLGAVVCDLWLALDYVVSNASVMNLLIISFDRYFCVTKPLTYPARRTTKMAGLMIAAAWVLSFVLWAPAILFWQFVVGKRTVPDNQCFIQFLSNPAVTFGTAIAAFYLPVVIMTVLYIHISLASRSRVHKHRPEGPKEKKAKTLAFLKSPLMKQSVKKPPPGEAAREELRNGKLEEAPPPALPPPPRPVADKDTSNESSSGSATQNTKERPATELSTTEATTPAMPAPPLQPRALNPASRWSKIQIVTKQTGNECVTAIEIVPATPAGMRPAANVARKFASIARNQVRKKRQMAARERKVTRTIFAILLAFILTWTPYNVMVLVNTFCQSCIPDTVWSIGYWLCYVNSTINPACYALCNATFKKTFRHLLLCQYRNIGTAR
Experimental: as §1, §2, §3, §4, §5, §6, §7, §8, §9

human mAChR M3 = molecular target: T5, human mAChR M3 (Homo sapiens, UniProt P20309); assay: Competitive [3H]NMS radioligand binding assay on CHO cell membranes, mAChR M3; conditions: CHO cell membranes with human receptor, 1.5 h at 20 °C, this work
T5 construct: host or cells: CHO-K1 (stably transfected), membrane preparation
Experimental: as §1, §2, §3, §4, §5, §6, §7, §8, §9

mAChR M1 = conditions: read-out: Ki mAChR M1; 90 min at 37 °C, transfected A9L cells; cited from earlier work
mAChR M4 = conditions: read-out: Ki mAChR M4; 90 min at 37 °C, NG108-15 cells; cited from earlier work
mAChR M2 = conditions: read-out: Ki mAChR M2; 90 min at 37 °C, membranes from rat heart tissue; cited from earlier work
mAChR M3 = molecular target: mAChR M3; design: method as in PMID 2066986; conditions: 90 min at 37 °C, transfected A9L cells; cited from earlier work

T5 sequence (P20309 whole entry): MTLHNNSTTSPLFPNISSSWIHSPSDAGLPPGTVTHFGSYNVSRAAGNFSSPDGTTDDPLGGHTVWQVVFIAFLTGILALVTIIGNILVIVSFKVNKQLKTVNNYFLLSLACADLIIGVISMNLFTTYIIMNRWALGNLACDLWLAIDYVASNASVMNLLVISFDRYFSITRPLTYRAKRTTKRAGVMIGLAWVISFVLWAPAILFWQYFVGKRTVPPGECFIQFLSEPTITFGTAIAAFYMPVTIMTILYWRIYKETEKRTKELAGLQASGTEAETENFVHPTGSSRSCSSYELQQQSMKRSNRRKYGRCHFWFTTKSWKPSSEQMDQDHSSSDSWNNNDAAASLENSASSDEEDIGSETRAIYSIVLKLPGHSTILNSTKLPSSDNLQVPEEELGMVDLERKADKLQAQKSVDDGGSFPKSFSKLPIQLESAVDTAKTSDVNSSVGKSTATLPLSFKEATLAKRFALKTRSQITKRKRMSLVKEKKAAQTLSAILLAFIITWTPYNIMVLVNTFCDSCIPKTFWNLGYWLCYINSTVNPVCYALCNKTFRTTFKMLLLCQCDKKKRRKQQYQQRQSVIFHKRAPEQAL

Structure (SMILES)	Effect on cell viability (MTT assay) (CHO-K1 cells)	Isomerization of 2 to 4 in simulated gastric fluid [1]	Formation of 4 from 2 ([2]; 0.1 M aqueous HCl at 37 °C, 55 °C or 75 °C overnight)	Activation energy of the rearrangement ([2]; 6 M HCl, from slope of Arrhenius plot)	half-life at 50 µg/mL ([2]; 6 M HCl, 37 °C)	half-life at 50 µg/mL ([2]; 6 M HCl, 55 °C)	half-life at 50 µg/mL ([2]; 6 M HCl, 75 °C)	Conversion of 2 to 4 ([2]; strong excess of aqueous HCl (6 M), pseudo first order kinetic)	Formation of 4 on heating the solid [3]	Ki (human mAChR M5)	Ki (human mAChR M2)	Ki (human mAChR M1)	Ki (human mAChR M4)	Ki (human mAChR M3)	Ki (mAChR M1)	Ki (mAChR M4)	Ki (mAChR M2)	Ki (mAChR M3)	Loss of affinity towards M1 on rearrangement (affinity constant of rearranged product vs parent) (human mAChR M1; rearranged product (4 or 5) versus parent drug)
CN1CCN(CC(=O)N2c3ccccc3C(=O)Nc3cccnc32)CC1 [Compound 2, Pirenzepine dihydrochloride]	No cytotoxic effect	neither simulated gastric fluid (0.08 M aq. HCl, 1 g/L NaCl and 1.6 g/L pepsin) nor equimolar aqueous HCl solution caused detectable isomerization	< 1%	83.2 ± 1.9 kJ/mol	13.8 ± 0.5 h	1.95 ± 0.267 h	0.417 ± 0.0333 h	quantitative conversion	did not result in formation of 4 in detectable amounts	–	–	–	–	–	–	–	–	–	–
CN1CCN(Cc2nc3cccnc3n2-c2ccccc2C(=O)O)CC1.Cl.Cl [Compound 4, 2-(2-((4-methylpiperazin-1-yl)methyl)-3H-imidazo[4,5-b]pyridin-3-yl)benzoic acid dihydrochloride]	No cytotoxic effect; also recorded: without measurable effect on cell viability	–	–	–	–	–	–	–	–	0.36 ± 0.02 µM	47 ± 19 µM	0.6 ± 0.02 µM	1.2 ± 0.2 µM	7 ± 2 µM	–	–	–	–	–
Cc1scc2c1N(C(=O)CN1CCN(C)CC1)c1ccccc1NC2=O [telenzepine 2HCl, Telenzepine dihydrochloride]	No cytotoxic effect	–	–	–	–	–	–	–	–	0.016 ± 0.009 µM	0.026 ± 0.005 µM	0.0018 ± 0.0008 µM	0.029 ± 0.016 µM	0.012 ± 0.002 µM	0.0018 µM	0.0174 µM	0.0503 µM	0.0069 µM	780 fold
Cc1scc(C(=O)O)c1-n1c(CN2CCN(C)CC2)nc2ccccc21 [Compound 5, 5-methyl-4-(2-((4-methylpiperazin-1-yl)methyl)-1H-benzo[d]imidazol-1-yl)thiophene-3-carboxylic acid]	No cytotoxic effect; also recorded: without measurable effect on cell viability	–	–	–	–	–	–	–	–	4.1 ± 0.2 µM	10.6 ± 1.5 µM	1.4 ± 0.3 µM	2 ± 0.4 µM	8 ± 3 µM	–	–	–	–	–
